“Also recorded” adds a separate entry of the source. No end group written: not given here.
How the values were obtained:
4T1 cells [1] = experiment: Flow cytometry of CD44+/CD24- cells isolated from the gel; format: cell-based, mouse; details: 4T1, 9 days after encapsulation in 5 kPa gel with or without conjugated peptide (about 6% without gel)
Description: Cells encapsulated in the gel were fixed with 4% paraformaldehyde for 30 min followed by washing with PBS. Next, the gel was incubated in oxidative degradation solution (0.1M CoCl in 20% hydrogen peroxide). After the gel was degraded, cells were washed three times with cold PBS containing 5% BSA. MCF7 cells were incubated with phycoerythrin (PE) mouse anti-human CD24 and fluorescein isothiocyanate (FITC) mouse anti-human CD44 (BD Biosciences, Franklin Lakes, N.J.), and 4T1 cells were incubated with PE-anti-mouse CD24 and FITC-anti-mouse CD44 (eBioscience, San Diego, Calif.) in 100 μl PBS with 5% BSA for 45 min on ice in the dark. Cells were then washed with cold PBS with 5% BSA three times and analyzed by a flow cytometer (FC500, Beckman Coulter, Brea, Calif.). Flow cytometry was done multiple times on each sample to ascertain reproducibility of the results.

4T1 cells [2] = experiment: RT-qPCR mRNA expression of CSC related markers in encapsulated cells; format: cell-based, mouse; details: for CD44 mRNA marker expression / ABCG2 mRNA marker expression / CD24 mRNA marker expression / SCA1 mRNA marker expression: 4T1 in PEGDA gel with peptide; for EGFR mRNA marker expression: 4T1 in peptide-conjugated gels
Description: Total cellular RNA of the gel samples was isolated using TRIzol (Invitrogen). 250 ng of the extracted purified RNA was reverse transcribed to cDNA by SuperScript II Reverse Transcriptase (Invitrogen) with the random primers. The obtained cDNA was subjected to real time quantitative polymerase chain reaction (RT-qPCR) amplification with appropriate gene specific primers. RT-qPCR was performed to analyze the differential expression of CSC markers CD44 (4T1 and MCF7), CD24 (4T1), ABCG2 (4T1 and MCF7), and SCA1 (4T1) genes with SYBR green RealMasterMix (Eppendorf, Hamburg, Germany) using Bio-Rad iCycler PCR system (Bio-Rad, Hercules, Calif.). The expression level of GAPDH gene was used as an internal control. The primers for real time PCR were designed by Primer 3 software. The following forward and reverse primers synthesized by Integrated DNA technologies (Coralville, Iowa) were used: mouse GAPDH: forward 5′-CATGGCCTTCCGTGTTCCTA-3′ (SEQ ID NO: 1) and reverse 5′-CCTGCTTCACCACCTTCTTGA-3′ (SEQ ID NO: 2); mouse CD44: forward 5′-GAATGTAACCTGCCGCTACG-3′ (SEQ ID NO: 3) and reverse 5′-GGA GGT GTT GGA CGT GAC-3′ (SEQ ID NO: 4); mouse CD24: forward 5′-CTTCTGGCACTGCTCCTACC-3′ (SEQ ID NO: 5) and reverse 5′-GAGAGAGAGCCAGGAGACCA-3′ (SEQ ID NO: 6); mouse ABCG2: forward 5′-AGCAGCAAGGAAAGATCCAA-3′ (SEQ ID NO: 7) and reverse 5′-GGAATACCGAGGCTGATGAA-3′ (SEQ ID NO: 8); mouse SCA1: forward 5′-TGG ACA CTT CTC ACA CTA-3′ (SEQ ID NO: 9) and reverse 5′-CAGAGCAAGAGGGTCTGCAGGAG-3′ (SEQ ID NO: 10); human GAPDH forward 5′-GAGTCAACGGATTTGGTCGT-3′ (SEQ ID NO: 11) and reverse 5′-TTGATTTTGGAGGGATCTCG-3′ (SEQ ID NO: 12); human CD44 forward 5′-GGCTTTCAATAGCACCTTGC-3′ (SEQ ID NO: 13) and reverse 5′-ACACCCCTGTGTTGTTTGCT-3′ (SEQ ID NO: 14); human ABCG2 forward 5′-CACCTTATTGGCCTCAGGAA-3′ (SEQ ID NO: 15) and reverse 5′-CCTGCTTGGAAGGCTCTATG-3′ (SEQ ID NO: 16). The relative gene expression levels were quantified by the 2^-ddCT method as described. The relative gene expressions were expressed as fold difference compared with that at time zero.
Total cellular RNA of the gel samples was isolated using TRIzol (Invitrogen). 250 ng of the extracted purified RNA was reverse transcribed to cDNA by SuperScript II Reverse Transcriptase (Invitrogen) with the random primers. The obtained cDNA was subjected to real time quantitative polymerase chain reaction (RT-qPCR) amplification with the appropriate gene specific primers. RT-qPCR was performed to analyze the differential expression of CSC markers CD44, CD24, ABCG2, and SCA1 genes with SYBR green RealMasterMix (Eppendorf, Hamburg, Germany) using Bio-Rad iCycler PCR system (Bio-Rad, Hercules, Calif.). The expression level of GAPDH gene was used as an internal control. The primers for real time PCR were designed by Primer 3 software. The forward and reverse primer sequences, listed in the table below, were synthesized by Integrated DNA technologies (Coralville, Iowa). The relative gene expression levels were quantified by the 2^(−ΔΔCT) method. Briefly, ΔCT was calculated as ΔCT=CT^target gene−CT^GAPDH. ΔΔCT of the target gene was calculated as ΔΔCT=ΔCT^experimental group−ΔCT^reference group. The reference was the first time point (right after cells were encapsulated in the gel). The relative gene expression (fold-change compared to the reference time point) was calculated as 2^(−ΔΔCT).

[3] = test system: 4T1 mouse breast carcinoma cells; experiment: Tumorsphere formation, size and cell number of cells encapsulated in the gel; format: cell-based; details: 9 days; for tumorsphere formation: 4T1 in 5 kPa PEGDA gel with peptide conjugated (conj) or dissolved (dis); for cell number density compared with the gel without peptide: 4T1 in PEGDA gel with peptide conjugated (conj) or dissolved (dis)
Description: 4T1 and MCF7 tumor cells were cultured in RMPI-1640 medium with 10% FBS under 5% CO2 at 37° C. Cells were trypsinized after reaching 70% confluency. PEGDA macromer was dissolved in PBS and sterilized by filtration with a 0.2 μm filter. Next, 1.4×10^5/mL 4T1 or MCF7 cells suspended in PBS were added to the macromer solution with final PEGDA concentrations ranging 5-25 wt % and mixed gently with a pre-sterilized glass rod. The cell-suspended hydrogel precursor solution was crosslinked with UV for 10 min. After crosslinking, the gel was cut into disks and incubated in stem cell culture medium in ultra-low attachment tissue culture plates under 5% CO2. The stem cell medium consisted of DMEM-F12 supplemented with 0.4% bovine serum albumin (BSA), 5 μg/mL insulin, 40 ng/mL basic fibroblast growth factor (bFGF), 20 ng/mL EGF, 5% horse serum, 100 U/mL penicillin, and 100 μg/mL streptomycin.
To determine cell viability, gels were stained with cAM/EthD live/dead dyes 2 days after encapsulation to image live and dead cells, respectively. Stained samples were imaged with an inverted fluorescent microscope (Nikon Eclipse Ti-ε, Nikon, Melville, N.Y.). Cell viability was quantified by dividing the image into smaller squares and counting the number of live and dead cells. At each time point, the gel samples were removed from the culture media and stained for imaging. Samples were rinsed twice with PBS and fixed with 4% paraformaldehyde for 3 h. After fixation, cells were permeabilized using PBS containing 0.1% Triton X-100 for 5 min. After rinsing, cells were incubated with Alexa 488 phalloidin (1:200 dilution) and DAPI (1:5000 dilution) to stain actin filaments of the cell cytoskeleton and cell nuclei, respectively. Stained samples were imaged with a Nikon Eclipse Ti-ε inverted fluorescent microscope. For visualization of cell uniformity, a confocal fluorescent microscope (Zeiss LSM-510 META Axiovert, Carl Zeiss, Germany) was used to obtain 2D images (90 μm thick layers) of the stained gels in the direction of thickness. For determination of cell number, the gel samples were homogenized, cells were lysed, and aliquots were used to measure the double stranded DNA (dsDNA) content using a Quant-it PicoGreen assay. Briefly, an aliquot (100 μL) of the working solution was added to 100 μL of the cell lysate and incubated for 4 min at ambient conditions. The fluorescence of the solution was measured with a plate reader (Synergy HT, Bio-Tek, Winooski, Vt.) at emission and excitation wavelength of […], respectively. Measured fluorescent intensities were correlated to cell numbers using a calibration curve constructed with 4T1 or MCF7 cells of known concentration ranging from zero to […].
The tumor cells were cultured in RMPI-1640 medium with 10% FBS under 5% CO2 at 37° C. Cells were trypsinized after reaching 70% confluency. The synthesized acrylamide-terminated peptides were added to the PEGDA macromer solution and the mixture was sterilized by filtration (220 nm filter). Next, 1.4×10^5/ml cells (4T1, MCF7, or MCF10a) were added to the macromer solution and mixed gently with a pre-sterilized glass rod. The cell-suspended hydrogel precursor solution was crosslinked with UV for 10 min as described above. After cross-linking, the gel was cut into disks and incubated in stem cell culture medium on ultra-low attachment tissue culture plates under 5% CO2. The stem cell medium consisted of DMEM-F12 supplemented with 0.4% BSA, 5 μg/ml insulin, 40 ng/ml bFGF, 20 ng/ml EGF, 5% horse serum, 100 U/ml penicillin, and 100 μg/ml streptomycin. For growing tumorspheres in suspension, trypsinized cells (4T1 or MCF7) were cultured on ultra-low attachment tissue culture plates with stem cell culture medium under 5% CO2 at 37° C.
To determine cell viability, gels were stained with cAM and EthD dyes after cell encapsulation to image live and dead cells, respectively. […]

4T1 cells [4] = experiment: Tumor growth in vivo of cell encapsulated gels implanted subcutaneously; set-up: species or system syngeneic Balb/C mice; details: 4T1 cells in dPEGDA gel, subcutaneous, 4 weeks after inoculation
Description: To test tumor formation ability of 4T1 cells in the hydrogel, the cell encapsulated gels were cultured in vitro in the stem cell medium for 9 days as described above. After tumorsphere formation, gel pieces containing 1×10^5 tumorsphere cells were implanted subcutaneously in syngeneic Balb/C mice (6 mice/group). Groups included 4T1 tumorsphere cells, grown on ultra-low attachment plates, and injected subcutaneously (control group), degradable version of the PEGDA gel (dPEGDA) without tumor cells (control group), 4T1 cells encapsulated in the dPEGDA and cultured in vitro for 9 days prior to implantation, and 4T1 cells encapsulated in CD44BP-conjugated dPEGDA gel and cultured in vitro for 9 days prior to implantation. When tumors became measurable, tumor size and growth rate were measured and calculated. Mice were euthanized when tumor volume reached above 1000 mm^3 or 4 weeks after inoculation.

[5] = 4T1 in peptide-conjugated gel, 9 days
[6] = 4T1 in peptide-conjugated gel, 3 days

Row | Substance | percentage of CD44+/CD24− cells (4T1 cells [1]) | CD44 mRNA marker expression (4T1 cells [2]; 9 days) | expression of integrin αV (4T1 cells [2]; 4T1 in peptide-conjugated gel) | expression of integrin β3 (4T1 cells [2]; 4T1 in peptide-conjugated gel) | expression of E-Cadherin (4T1 cells [2]; [5]) | EGFR mRNA marker expression (4T1 cells [2]; 9 days) | tumorsphere formation [3] | cell number density compared with the gel without peptide [3] | ABCG2 mRNA marker expression (4T1 cells [2]; 9 days) | CD24 mRNA marker expression (4T1 cells [2]; 9 days) | SCA1 mRNA marker expression (4T1 cells [2]; 9 days) | CD44 mRNA marker expression (4T1 cells [2]; 9 days, listed as CD44BP) | tumorsphere formation ([3]; listed as CD44BP) | cell number density compared with the gel without peptide ([3]; listed as CD44BP) | tumor formation in vivo (4T1 cells [4]) | tumor formation in vivo (4T1 cells [4]; listed as CD44BP) | expression of E-Cadherin (4T1 cells [2]; [6]) | expression of N-Cadherin (4T1 cells [2]; [6]) | size of cell aggregates / spheres ([3]; 4T1 in peptide-conjugated gels)
1 | GRGDS [IBP] | 5.4% | decreased | significantly increased | significantly increased | low expressions | decreased | completely abolished | reduced cell number |  |  |  |  |  |  |  |  |  |  | 
2 | RLVSYNGIIFFLK [conj CD44BP] (RLVSYNGIIFFLK-NH2; also: conjugated to PEGDA gel, site not given here) | 6.5% | decreased expressions | reduced | reduced | low expressions | decreased | completely abolished sphere formation | strongest effect on cell density | decreased expressions | increased expression | decreased expressions | decreased | inhibits tumorsphere formation; also recorded: completely abolished | reduced cell number | did not form a visible tumor | Tumor growth was not observed |  |  | 
3 | RLVSYNGIIFFLK [dis CD44BP, CD44BP dissolved in the gel and in the culture medium] |  | high expressions |  |  |  |  | did not inhibit sphere formation | lower | high expressions | low expression | high expressions |  |  |  |  |  |  |  | 
4 | WQPPRARI [FHBP] | about 21% | significantly higher | reduced | reduced | much higher than that in other groups | increased | increased; also recorded: enhanced | higher cell number |  |  |  |  |  |  |  |  | decreased | increased | larger spheres
5 | VLFGFLKIYSRIN [conj s-CD44BP, reference compound] |  | high expressions |  |  |  |  | no significant effect | lower | high expressions | low expression | high expressions |  |  |  |  |  |  |  | 
